In ChEMBL document CHEMBL1201862, “PubChem BioAssay data set” (2004):
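Five compound concentrations were applied to cells in 96-well plates for 48 hours; endpoints were derived by simple linear interpolation of the resulting dose-response curve. GI50 marks 50% less growth.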 The source made the active and inactive calls. No stated cut-off is given here; in the data, active = GI50 up to about 1.1 µM and inactive = higher.

Columns and labels:
Experiment in all cases: NCI-60 cell line screen, 48 h
[1] = tested on: SK-OV-3
[2] = tested on: SK-MEL-2
[3] = tested on: KM12
[4] = tested on: RPMI-8226
[5] = tested on: Hs-578T
[6] = tested on: PC-3
[7] = tested on: UO-31
[8] = tested on: SN12C
[9] = tested on: A549
[10] = tested on: SNB-19
[11] = tested on: M14
[12] = tested on: 786-0
[13] = tested on: HCT-15
[14] = tested on: NCI-H23
[15] = tested on: NCI-H460
[16] = tested on: SF-539
[17] = tested on: OVCAR-3
[18] = tested on: DU-145
[19] = tested on: UACC-257
[20] = tested on: SF-295
[21] = tested on: HCT-116
[22] = tested on: IGROV-1
[23] = tested on: TK-10
[24] = tested on: SW-620
[25] = tested on: ACHN
[26] = tested on: HCC 2998
[27] = tested on: MCF7
[28] = tested on: SK-MEL-28
[29] = tested on: Malme-3M
[30] = tested on: HOP-92
[31] = tested on: UACC-62
[32] = tested on: MDA-MB-435
[33] = tested on: OVCAR-8
[34] = tested on: K562
[35] = tested on: T47D
[36] = tested on: NCI-H522
[37] = tested on: BT-549
[38] = tested on: A498
[39] = tested on: SF-268
[40] = tested on: HL-60
[41] = tested on: MDA-N
[42] = tested on: NCI/ADR-RES
[43] = tested on: U-251
[44] = tested on: COLO 205
[45] = tested on: EKVX
[46] = tested on: SK-MEL-5
[47] = tested on: LOX IMVI
[48] = tested on: MOLT-4
[49] = tested on: OVCAR-4
[50] = tested on: HT-29
[51] = tested on: NCI-H226
[52] = tested on: MDA-MB-231
[53] = tested on: CAKI-1
[54] = tested on: OVCAR-5
[55] = tested on: CCRF-CEM
[56] = tested on: SNB-75
[57] = tested on: HOP-62
[58] = tested on: RXF 393

With CC(=O)OCCn1c(Cc2ccc(C)cc2)nn(C(C)=O)c1=O the GI50 [1] was > 100 µM (inactive), the GI50 [2] was > 100 µM (inactive) and the GI50 [3] was > 100 µM (inactive). For the same compound, the GI50 [4] was > 100 µM (inactive), the GI50 [5] was > 100 µM (inactive) and the GI50 [6] was > 100 µM (inactive). The GI50 [7] was > 100 µM (inactive), the GI50 [8] was > 100 µM (inactive) and the GI50 [9] was > 100 µM (inactive). For the same compound, the GI50 [10] was > 100 µM (inactive), the GI50 [11] was > 100 µM (inactive) and the GI50 [12] was > 100 µM (inactive). The GI50 [13] was over 100 µM, the GI50 [14] was > 100 µM (inactive) and the GI50 [15] was > 100 µM (inactive). For the same compound, the GI50 [16] was > 100 µM (inactive), the GI50 [17] was > 100 µM (inactive) and the GI50 [18] was > 100 µM (inactive). For the same compound, the GI50 [19] was > 100 µM (inactive), the GI50 [20] was > 100 µM (inactive) and the GI50 [21] was > 100 µM (inactive). The GI50 [22] was > 100 µM (inactive), the GI50 [23] was > 100 µM (inactive) and the GI50 [24] was > 100 µM (inactive). The GI50 [25] was > 100 µM (inactive), the GI50 [26] was > 100 µM (inactive) and the GI50 [27] was > 100 µM (inactive). For the same compound, the GI50 [28] was > 100 µM (inactive), the GI50 [29] was > 100 µM (inactive) and the GI50 [30] was > 100 µM (inactive). The GI50 [31] was > 100 µM (inactive), the GI50 [32] was > 100 µM (inactive) and the GI50 [33] was > 100 µM (inactive). The GI50 [34] was > 100 µM (inactive), the GI50 [35] was > 100 µM (inactive) and the GI50 [36] was > 100 µM (inactive). The GI50 [37] was > 100 µM (inactive), the GI50 [38] was > 100 µM (inactive) and the GI50 [39] was > 100 µM (inactive). For the same compound, the GI50 [40] was > 100 µM (inactive), the GI50 [41] was > 100 µM (inactive) and the GI50 [42] was > 100 µM (inactive). The GI50 [43] was > 100 µM (inactive), the GI50 [44] was > 100 µM (inactive) and the GI50 [45] was > 100 µM (inactive). The GI50 [46] was > 100 µM (inactive), the GI50 [47] was > 100 µM (inactive) and the GI50 [48] was > 100 µM (inactive). For the same compound, the GI50 [49] was > 100 µM (inactive), the GI50 [50] was > 100 µM (inactive) and the GI50 [51] was > 100 µM (inactive). The GI50 [52] was > 100 µM (inactive), the GI50 [53] was > 100 µM (inactive) and the GI50 [54] was > 100 µM (inactive).
With Oc1[nH]c(Nc2cc(Cl)cc(Cl)c2)nc2ncnc1-2 the GI50 [1] was > 75 µM (inactive), the GI50 [2] was > 75 µM (inactive) and the GI50 [3] was > 75 µM (inactive). For the same compound, the GI50 [55] was > 75 µM (inactive), the GI50 [4] was > 75 µM (inactive) and the GI50 [5] was 17.9 µM (inactive). For the same compound, the GI50 [6] was > 75 µM (inactive), the GI50 [7] was > 75 µM (inactive) and the GI50 [8] was > 75 µM (inactive). The GI50 [9] was > 75 µM (inactive), the GI50 [10] was > 75 µM (inactive) and the GI50 [11] was > 75 µM (inactive). For the same compound, the GI50 [12] was > 75 µM (inactive), the GI50 [13] was over 75 µM and the GI50 [56] was > 75 µM (inactive). The GI50 [14] was > 75 µM (inactive), the GI50 [15] was > 75 µM (inactive) and the GI50 [16] was > 75 µM (inactive). The GI50 [17] was > 75 µM (inactive), the GI50 [57] was > 75 µM (inactive) and the GI50 [18] was > 75 µM (inactive). For the same compound, the GI50 [19] was > 75 µM (inactive), the GI50 [20] was > 75 µM (inactive) and the GI50 [21] was > 75 µM (inactive). For the same compound, the GI50 [22] was > 75 µM (inactive), the GI50 [23] was > 75 µM (inactive) and the GI50 [24] was > 75 µM (inactive). For the same compound, the GI50 [25] was > 75 µM (inactive), the GI50 [26] was > 75 µM (inactive) and the GI50 [27] was > 75 µM (inactive). The GI50 [29] was > 75 µM (inactive), the GI50 [30] was > 75 µM (inactive) and the GI50 [31] was > 75 µM (inactive). The GI50 [32] was > 75 µM (inactive), the GI50 [33] was > 75 µM (inactive) and the GI50 [34] was > 75 µM (inactive). For the same compound, the GI50 [35] was > 75 µM (inactive), the GI50 [37] was > 75 µM (inactive) and the GI50 [39] was > 75 µM (inactive). For the same compound, the GI50 [41] was > 75 µM (inactive), the GI50 [42] was > 75 µM (inactive) and the GI50 [43] was > 75 µM (inactive). The GI50 [44] was > 75 µM (inactive), the GI50 [45] was > 75 µM (inactive) and the GI50 [46] was > 75 µM (inactive). For the same compound, the GI50 [47] was > 75 µM (inactive), the GI50 [48] was > 75 µM (inactive) and the GI50 [49] was > 75 µM (inactive). For the same compound, the GI50 [58] was > 75 µM (inactive), the GI50 [50] was > 75 µM (inactive) and the GI50 [51] was > 75 µM (inactive). For the same compound, the GI50 [52] was > 75 µM (inactive), the GI50 [53] was > 75 µM (inactive) and the GI50 [54] was > 75 µM (inactive).
For Nc1ncnc2c1ncn2-c1ccc([N+](=O)[O-])cn1, the GI50 [1] was > 100 µM (inactive), the GI50 [2] was > 100 µM (inactive) and the GI50 [3] was > 100 µM (inactive). The GI50 [55] was > 100 µM (inactive), the GI50 [4] was > 100 µM (inactive) and the GI50 [5] was 61.9 µM (inactive). For the same compound, the GI50 [7] was > 100 µM (inactive), the GI50 [8] was > 100 µM (inactive) and the GI50 [9] was > 100 µM (inactive). The GI50 [10] was > 100 µM (inactive), the GI50 [11] was > 100 µM (inactive) and the GI50 [12] was > 100 µM (inactive). The GI50 [13] was over 100 µM, the GI50 [56] was 41.4 µM (inactive) and the GI50 [14] was > 100 µM (inactive). The GI50 [15] was > 100 µM (inactive), the GI50 [16] was > 100 µM (inactive) and the GI50 [17] was > 100 µM (inactive). For the same compound, the GI50 [57] was > 100 µM (inactive), the GI50 [18] was > 100 µM (inactive) and the GI50 [19] was > 100 µM (inactive). For the same compound, the GI50 [20] was > 100 µM (inactive), the GI50 [21] was > 100 µM (inactive) and the GI50 [23] was > 100 µM (inactive). The GI50 [24] was > 100 µM (inactive), the GI50 [25] was > 100 µM (inactive) and the GI50 [26] was > 100 µM (inactive). For the same compound, the GI50 [27] was > 100 µM (inactive), the GI50 [28] was > 100 µM (inactive) and the GI50 [30] was > 100 µM (inactive). For the same compound, the GI50 [31] was > 100 µM (inactive), the GI50 [32] was > 100 µM (inactive) and the GI50 [33] was > 100 µM (inactive). For the same compound, the GI50 [34] was > 10 µM (inactive), the GI50 [35] was > 100 µM (inactive) and the GI50 [37] was > 100 µM (inactive). The GI50 [38] was > 100 µM (inactive), the GI50 [39] was > 100 µM (inactive) and the GI50 [40] was > 100 µM (inactive). For the same compound, the GI50 [41] was > 100 µM (inactive), the GI50 [42] was > 100 µM (inactive) and the GI50 [43] was > 100 µM (inactive). The GI50 [44] was > 100 µM (inactive), the GI50 [46] was > 100 µM (inactive) and the GI50 [47] was > 100 µM (inactive). For the same compound, the GI50 [49] was > 100 µM (inactive), the GI50 [58] was > 100 µM (inactive) and the GI50 [50] was > 100 µM (inactive). The GI50 [51] was > 100 µM (inactive), the GI50 [52] was > 100 µM (inactive) and the GI50 [53] was > 100 µM (inactive). The GI50 [54] was > 100 µM (inactive).
